How the values were obtained:
[1] = tested on: digested samples; assay: Influence of surfactant added to hybridization solution on signal detection; assay type: cell-based; conditions: for detection sensitivity: surfactant added to the probe dilution solution, SDS 0.25%
Experimental: A solution containing 15 ng of a digoxigenin labelled DNA probe prepared with a probe dilution solution (including 0.25% SDS, 600 μl of salmon sperm DNA, 50 μl of 100× Denhardt's solution, 500 μl of a hybridization stock solution, 2250 μl of formamide, 1000 μl 50% dextran sulfate) is coated on the smeared site, and the slide was left to stand still in a humid box at 37° C. to 42° C. for 2 hours. A probe solution without including SDS was determined as a control. The digoxigenin labelled DNA probe was produced by a nick translation method. Thereafter, a hybridization washing solution (prepared by mixing a hybridization stock solution (13.15 g of sodium chloride, 6.615 g of trisodium citrate dihydrate, adjusted to give the total volume of 75 ml with sterile purified water) in a ratio of the hybridization stock solution:sterile purified water:formamide=5:4:50) was provided in three staining bottles, and sequentially the sample was immersed at 42° C. for 10 minutes, respectively.
The digested samples produced according to the process described in Example 17(1) and [2] were used as specimens. […] In addition, the detection sensitivity could be improved by lauryl sarcosine, BRIJ 35 or Tween 20.

[2] = tested on: specimen A-SA (Staphylococcus aureus); assay: In situ hybridization of clinical blood specimens of patients suspected of sepsis; assay type: cell-based; conditions: 0.25% SDS added to probe dilution solution, FIG. 1
Experimental: As clinical specimens, 12 specimens of blood collected from patients suspected as suffering from sepsis (specimens A to L) were used. Ten ml of heparinized venous blood was collected from each patient, and after admixing the blood with a reagent for separating blood (225 mg of sodium chloride, 1.5 g of dextran (MW: 200,000-300,000)), adjusted to give the total volume of 25 ml with sterile purified water) at a ratio of 4:1, a leukocyte fraction (upper layer) was obtained by leaving to stand still at 37° C. for 30 minutes. […] The slide glass was immersed in PBS for 10 minutes, and thereafter, in a solution of an enzyme pretreatment reagent (prepared by mixing 1.25 g of saponin, 1.25 ml of t-octylphenoxypolyethoxyethanol (specific gravity: 1.068 to 1.075 (20/4° C.), pH (5 w/v %) 5.5-7.5) and 25 ml of the PBS stock solution, and adjusting to give the total volume of 50 ml with sterile purified water) diluted to 10 fold in sterile purified water, and allowing infiltration on a shaker for 10 minutes. […] Then, it was immersed in PBS containing 0.2 mol/l hydrochloric acid (prepared by adding hydrochloric acid to the PBS stock solution, 20 fold dilution in sterile purified water, and adjusting to give the final concentration of hydrochloric acid of 0.2 mol/l) and allowed infiltration on a shaker for 10 minutes as it was. […] A probe solution without including SDS was determined as a control. […]

[3] = tested on: EF digested sample; assay: Enzymatic treatment of digested sample, bacterial bodies in leukocytes by acridine orange staining; assay type: cell-based, Enterococcus faecalis; conditions: N-acetylmuramidase fixed at 100 unit/ml
Experimental: Using the slide glass having each digested sample smeared thereon, the enzymatic pretreatment was performed according to the process described in Example 3. Next, the slide glass after completing the enzymatic pretreatment was placed in a humid box, and the reaction was allowed by dropping 1 ml of each enzyme solution prepared to give each titer on the smeared site of the specimen. Thereafter, the slide glass was immersed in PBS containing 0.2 mol/l hydrochloric acid, and in 70% ethanol respectively, for 10 minutes, and air dried. After immersing this slide glass in PBS containing 70 mmol/l sodium hydroxide for 3 minutes, and in 70% ethanol for 10 minutes, it was air dried and stained with 1% acridine orange staining solution. Then, evaluation was made with a fluorescence microscope (×1,000). For Staphylococcus aureus and Staphylococcus epidermidis, examination of the optimal titer was conducted with lysostafin. […] The determination was made as adequate when no bacterial body was identified in the leukocytes by the enzymatic treatment.
Using a slide glass including each digested sample smeared thereon, examination was conducted according to the process described in example 17 (2). Time period of the enzymatic treatment in this test was 30 minutes, and the temperature for examination was 4° C., 25° C., 37° C., 42° C., and 60° C.
Using the slide glass including each digested sample smeared thereon, examination was conducted according to the process described in example 17 (2). […] Determination was conducted according to the process described in example 17 (2).

[4] = tested on: Micrococcus luteus; assay: Lysis evaluated by decrease in turbidity at 600 nm; assay type: cell-based; conditions: lysozyme 10,000 unit/ml
Experimental: (§1) Enterococcus faecalis was inoculated in 50 ml of the aforementioned BHI liquid medium, and cultured at 37° C. for 8 hours or longer. This culture liquid was centrifuged at 4° C. for 10 minutes at 2,000×g to collect the bacteria, followed by subjecting to a heat treatment in an autoclave (120° C., for 10 minutes) after suspending in PBS. Next, the suspension was centrifuged at 4° C. for 10 minutes at 2,000×g, and the supernatant was discarded. Precipitates were suspended in 1 ml of PBS, and thereafter, subjected to freeze-drying. This freeze-dried sample was suspended in 5 mmol/l Tris-hydrochloric acid (pH 6.0), 2 mmol/l magnesium chloride containing 0 to 10% DMSO to give the samples for N-acetylmuramidase. Further, Micrococcus luteus (JCM1464) was inoculated in 5 ml of BHI liquid medium (supra), and cultured at 37° C. for 8 hours or longer. The cultured bacterial liquid was centrifuged at 4° C. for 10 minutes at 2,000×g to collect the bacteria. After discarding the supernatant, and suspending and washing the bacterial pellet with 5 ml of PBS, centrifugation was conducted once again at 4° C. for 10 minutes at 2,000×g to collect the bacteria. […] Enzymatic activity was evaluated on the basis of the decrease in turbidity of the sample at the absorbance of 600 nm using a microplate reader. […] Additionally, no decrease in enzymatic activity was found with DMSO at the concentration of 2% or less. […] The results are show in FIG. 4(a) to (c) and Table 3 below.

[5] = tested on: Enterococcus faecalis; assay: Lysis evaluated by decrease in turbidity at 600 nm; assay type: cell-based
Source text: (§2) Conditions for the enzyme to lyse Staphylococcus aureus (ATCC 12600), Staphylococcus epidermidis (ATCC 14990), Pseudomonas aeruginosa (ATCC 10145), Enterococcus faecalis (ATCC 19433) and Escherichia coli (ATCC 11775) were studied. For Staphylococcus aureus and Staphylococcus epidermidis, lysostafin was used as the lytic enzyme (Bur. J. Biochem., 38, 293-300, 1973). […] Further, for Pseudomonas aeruginosa and Escherichia coli, PBS containing 70 mmol/l sodium hydroxide was used. Each type of these bacteria was inoculated in 5 ml of BHI (Brain Heart Infusion) liquid medium (manufactured by DIFCO), and cultured at 37° C. for 8 hours or longer. Thus cultured bacterial liquid was collected by centrifugation at 4° C. for 10 minutes at 2,000×g. The collected bacteria were suspended in PBS to give a sample.
(§3) Lysis was evaluated by decrease in turbidity of the bacterial liquid at the absorbance of 600 nm using a microplate reader. Consequently, Staphylococcus aureus and Staphylococcus epidermidis were lysed by lysostafin. In respect of Pseudomonas aeruginosa and Escherichia coli, no enzymatic treatment was required because lysis was conducted with PBS containing 70 mmol/l sodium hydroxide. […] Moreover, when the bacterium incorporated upon phagocytotic action is for example, Pseudomonas aeruginosa, Escherichia coli or the like, bacterial cell wall is lysed during the alkaline treatment to result in the state in which the gene is exposed. Therefore, it is not necessary to conduct this enzymatic treatment. Each enzyme for the pretreatment which is used in lysis of the foreign microorganism according to the present invention is effective not only for the aforementioned bacterial strain, but also for other bacterial strain that includes other genus staphylococcus, genus streptococcus, genus bacillus, genus micrococcus and the like. […] The results are illustrated in FIG. 3, specifically, in regard to: (a) Staphylococcus aureus and Staphylococcus epidermidis, (b) Pseudomonas aeruginosa and Escherichia coli, and (c) Enterococcus faecalis.
as §1

[6] = tested on: Staphylococcus epidermidis; assay: Lysis evaluated by decrease in turbidity at 600 nm; assay type: cell-based; conditions: lysostafin 50 unit/ml
Source text: as §2, §3, §1

Molecule: CCCCCCCCCCCCOS(=O)(=O)[O-].[Na+] [SDS, sodium dodecyl sulfate]
- preferable concentration ([1]; SDS at various concentrations): ≤ 1%
- detection sensitivity [1]: dramatically enhanced
- detection sensitivity of the signal [2]: markedly elevated

Molecule: lysozyme: lytic enzyme (Seikagaku Corporation)
- enzymatic treatment determination ([3]; lysozyme titer 10 U/mL): inadequate
- enzymatic treatment determination ([3]; lysozyme titer 100 U/mL): inadequate
- enzymatic treatment determination ([3]; lysozyme titer 1,000 U/mL): inadequate
- enzymatic treatment determination ([3]; lysozyme titer 10,000 U/mL): adequate
- enzymatic treatment determination ([3]; lysozyme titer 100,000 U/mL): adequate
- Decrease in turbidity of bacteria ([4]; added DMSO 0 % (control)): 0.689 ± 0.028 O.D./3 minutes
- Decrease in turbidity of bacteria ([4]; added DMSO 0.1 %): 0.678 ± 0.026 O.D./3 minutes
- Decrease in turbidity of bacteria ([4]; added DMSO 1 %): 0.660 ± 0.026 O.D./3 minutes
- Decrease in turbidity of bacteria ([4]; added DMSO 2 %): 0.653 ± 0.024 O.D./3 minutes
- Decrease in turbidity of bacteria ([4]; added DMSO 5 %): 0.566 ± 0.017 O.D./3 minutes
- Decrease in turbidity of bacteria ([4]; added DMSO 10 %): 0.464 ± 0.016 O.D./3 minutes
- lytic activity ([5]; lysozyme in combination with N-acetylmuramidase versus N-acetylmuramidase alone, FIG. 3(c)): more excellent lytic activity

Molecule: C[S+](C)[O-] [DMSO, dimethylsulfoxide]
- DMSO concentration at which decrease in activity was found [4]: ≥ 5%
- DMSO concentration at which no decrease in enzymatic activity was found [4]: ≤ 2%
- influence on N-acetylmuramidase activity ([5]; DMSO 0 to 10%, N-acetylmuramidase 300 unit/ml): hardly influenced
- DMSO concentration at which decrease in activity was found [6]: ≥ 5%
- DMSO concentration at which no decrease in enzymatic activity was found [6]: ≤ 2%

Molecule: CCCCCCCCCCCCN(C)CC(=O)O [Lauryl sarcosine]
- detection sensitivity [1]: improved
